{"source": "paper PMC9683861", "about": "(Journal of Molecular Biology, 2022)", "molecules": {"B1": {"name": "C-terminally truncated human 14-3-3σ (residues 1–231) Clu3 mutant (75EEK77 → 75AAA77) (domain or fragment)", "chain": "MERASLIQKAKLAEQAERYEDMAAFMKGAVEKGEELSCEERNLLSVAYKNVVGGQRAAWRVLSSIEQKSNEEGSAAAGPEVREYREKVETELQGVCDTVLGLLDSHLIKEAGDAESRVFYLKMKGDYYRYLAEVATGDDKKRIIDSARSAYQEAMDISKKEMPPTNPIRLGLALNFSVFHYEIANSPEEAISLAKTTFDEAMADLHTLSEDSYKDSTLIMQLLRDNLTLWT"}, "B2": {"name": "C-terminally truncated human 14-3-3σ (residues 1–231) Clu1 mutant (159KKE161 → 159AAA161) (domain or fragment)", "chain": "MERASLIQKAKLAEQAERYEDMAAFMKGAVEKGEELSCEERNLLSVAYKNVVGGQRAAWRVLSSIEQKSNEEGSEEKGPEVREYREKVETELQGVCDTVLGLLDSHLIKEAGDAESRVFYLKMKGDYYRYLAEVATGDDKKRIIDSARSAYQEAMDISAAAMPPTNPIRLGLALNFSVFHYEIANSPEEAISLAKTTFDEAMADLHTLSEDSYKDSTLIMQLLRDNLTLWT"}}, "key": {"[1]": {"biological_target": "14-3-3γ (gamma) (Homo sapiens, UniProt P61981)", "assay_type": "binding"}, "[2]": {"test_system": "all seven human 14-3-3 isoforms", "assay_type": "binding"}, "[3]": {"biological_target": "14-3-3σ (sigma) (Homo sapiens, UniProt P31947)", "sequence (P31947 whole entry)": "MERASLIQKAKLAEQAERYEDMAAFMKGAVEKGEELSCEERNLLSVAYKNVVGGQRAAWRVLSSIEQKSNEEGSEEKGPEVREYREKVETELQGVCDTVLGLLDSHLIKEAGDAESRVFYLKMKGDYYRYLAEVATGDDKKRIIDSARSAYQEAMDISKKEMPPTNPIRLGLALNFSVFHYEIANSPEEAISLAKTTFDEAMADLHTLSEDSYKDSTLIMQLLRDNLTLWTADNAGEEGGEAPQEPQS", "assay_type": "binding"}, "[4]": {"biological_target": "14-3-3γ (Homo sapiens, UniProt P61981)", "assay_type": "binding"}, "[5]": {"biological_target": "the molecule itself", "experiment": "crystal structure"}, "[6]": {"biological_target": "T1, Untagged full-length human 14-3-3γ (human, UniProt P61981 1-247)", "T1 sequence": "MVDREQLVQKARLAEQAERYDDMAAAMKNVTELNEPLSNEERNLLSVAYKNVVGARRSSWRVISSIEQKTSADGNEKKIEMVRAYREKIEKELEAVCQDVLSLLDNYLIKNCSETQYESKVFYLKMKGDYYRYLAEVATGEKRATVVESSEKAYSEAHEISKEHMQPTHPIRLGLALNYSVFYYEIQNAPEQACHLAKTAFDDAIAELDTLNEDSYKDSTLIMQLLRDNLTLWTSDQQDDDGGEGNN", "experiment": "fluorescence polarisation"}}, "note": "“Also recorded” adds a separate entry of the source. Non-standard residues stand in square brackets, D forms with d. Residues, ends and D or L forms follow the SMILES beside them. No end group written: not given here. *: point of attachment. FITC = O=C1OC2(c3ccc(O)cc3Oc3cc(O)ccc32)c2ccc(NC(=S)*)cc21; pT = C[C@@H](OP(=O)(O)O)[C@H](N)C(=O)O; pS = N[C@@H](COP(=O)(O)O)C(=O)O", "data": [{"molecule": "O=C1OC2(c3ccc(O)cc3Oc3cc(O)ccc32)c2ccc(N=C=S)cc21", "note": "[free FITC, fluorescein 5-isothiocyanate, reference compound]", "values": [{"measurement": "Binding to MBP-14-3-3 (free FITC control)", "setting": "[1]", "value": "did not show significant binding"}]}, {"molecule": "CSCC[C@H](NC(=O)[C@H](CCCNC(=N)N)NC(=O)[C@H](C)NC(=O)[C@@H]1CCCN1C(=O)[C@H](CO)NC(=O)[C@@H](NC(=O)CNC(=O)[C@H](CCCNC(=N)N)NC(=O)[C@H](CO)NC(=O)[C@H](CO)NC(=O)[C@H](Cc1c[nH]c2ccccc12)NC(=S)Nc1ccc2c(c1)C(=O)OC21c2ccc(O)cc2Oc2cc(O)ccc21)[C@@H](C)OP(=O)(O)O)C(=O)O", "note": "[pT205] ({FITC}-WSSRG[pT]SPARM-OH)", "values": [{"measurement": "Affinity preference", "setting": "[2]", "value": "preferred over the pS197-motif by all seven human 14-3-3 isoforms; also recorded: consistently tighter affinity than the pS197 fragment"}, {"measurement": "KD ratio between weakest (14-3-3σ/pS197) and strongest (14-3-3γ/pT205) pair", "setting": "[2]", "value": "~10", "unit": "fold"}, {"measurement": "Order of affinity over the 14-3-3 isoforms", "setting": "[2]", "value": "gamma (γ) > eta (η) > beta (β) > epsilon (ε) > zeta (ζ) > tau (τ) > sigma (σ)"}, {"measurement": "Ratio of the average KD values pS197/pT205", "setting": "[2]", "value": 4.3, "unit": "fold"}, {"measurement": "Ratio: affinity of 14-3-3σ to pT205 versus pS197 peptide", "setting": "[3]", "value": "~3", "unit": "times tighter"}, {"measurement": "Selectivity coefficient (KD pS197 / KD pT205), gamma", "setting": "[1]", "value": "~7"}]}, {"molecule": "WLRRApSAPLPGLK [pB6]", "values": [{"measurement": "Displacement of FITC-labeled peptide from 14-3-3", "setting": "[4]", "value": "could be disrupted"}]}, {"molecule": "B1", "values": [{"measurement": "stoichiometry N", "setting": "[5]", "value": 2}]}, {"molecule": "B2", "values": [{"measurement": "stoichiometry N", "setting": "[5]", "value": 2}]}, {"molecule": "WLRRA[pS]APLPGLK", "note": "[Unlabeled phosphopeptide of human HSPB6 (pB6) WLRRApSAPLPGLK]", "values": [{"measurement": "binding result", "setting": "[6]", "value": "binds"}]}]}
